Measurements from ChEMBL document CHEMBL3046114, “Synthesis and phytotoxic activity of novel acylthiourea and 2H-1,2,4-thiadiazolo[2,3-]pyrimidine derivatives” (2012).

Experiments:
Format in all cases: functional
Conditions in all cases: read-out: GI
[1] = test system: Digitaria ciliaris; test: Phytotoxicity against Digitaria ciliaris germinated seed assessed as growth inhibition at 100 mg/L after 72 hr by culture dish method
[2] = test system: Digitaria ciliaris; test: Phytotoxicity against Digitaria ciliaris germinated seed assessed as growth inhibition at 10 mg/L after 72 hr by culture dish method
[3] = test system: Brassica napus; test: Phytotoxicity against Brassica napus (oilseed rape) germinated seed assessed as growth inhibition at 100 mg/L after 72 hr by culture dish method
[4] = test system: Chenopodium ficifolium; test: Phytotoxicity against Chenopodium ficifolium germinated seed assessed as growth inhibition at 10 mg/L after 72 hr by culture dish method
[5] = test system: Echinochloa crus-galli; test: Phytotoxicity against Echinochloa crus-galli (barnyard grass) germinated seed assessed as growth inhibition at 100 mg/L after 72 hr by culture dish method
[6] = test system: Chenopodium ficifolium; test: Phytotoxicity against Chenopodium ficifolium germinated seed assessed as growth inhibition at 100 mg/L after 72 hr by culture dish method
[7] = test system: Echinochloa crus-galli; test: Phytotoxicity against Echinochloa crus-galli (barnyard grass) germinated seed assessed as growth inhibition at 10 mg/L after 72 hr by culture dish method
[8] = test system: Brassica napus; test: Phytotoxicity against Brassica napus (oilseed rape) germinated seed assessed as growth inhibition at 10 mg/L after 72 hr by culture dish method

| SMILES | inhibition of growth at 100 µg/mL [1] [%] | inhibition of growth at 10 µg/mL [2] [%] | inhibition of growth at 100 µg/mL [3] [%] | inhibition of growth at 10 µg/mL [4] [%] | inhibition of growth at 100 µg/mL [5] [%] | inhibition of growth at 100 µg/mL [6] [%] | inhibition of growth at 10 µg/mL [7] [%] | inhibition of growth at 10 µg/mL [8] [%] |
| --- | --- | --- | --- | --- | --- | --- | --- | --- |
| CSc1cc(C)nc(NC(=S)NC(=O)c2c(-c3ccc(Cl)cc3Cl)noc2C)n1 | 45.5 | 26.7 | 73.6 | 32.8 | 47.1 | 86.1 | 27.4 | 42.4 |
| COc1cc(OC)n2s/c(=N\C(=O)c3c(-c4ccc(Cl)cc4Cl)noc3C)nc2n1 | 85.3 | 53.8 | 85.6 | 28.9 | 85.6 | 82.7 | 43.2 | 49.3 |
| COc1cc(OC)nc(NC(=S)NC(=O)c2c(-c3ccc(Cl)cc3Cl)noc2C)n1 | 65.9 | 32 | 70.8 | 30.7 | 60.9 | 78.6 | 21.8 | 35.2 |
| Cc1cc(Cl)nc(NC(=S)NC(=O)c2c(-c3ccc(Cl)cc3Cl)noc2C)n1 | 44.2 | 10.2 | 50.8 | 28.9 | 48.7 | 48.3 | -6.84 | 8.36 |
| CSc1cc(C)nc2n/c(=N/C(=O)c3c(-c4ccc(Cl)cc4Cl)noc3C)sn12 | 70.6 | 26.8 | 62.8 | 21.9 | 75.4 | 75.2 | 37.5 | 32.8 |
| Cc1cc(O)nc(NC(=S)NC(=O)c2c(-c3ccc(Cl)cc3Cl)noc2C)n1 | 49.3 | -6.24 | 52.3 | -5.86 | 46.8 | 46.7 | -9.78 | 6.7 |
| Cc1cc(C)n2s/c(=N\C(=O)c3c(-c4ccc(Cl)cc4Cl)noc3C)nc2n1 | 84.9 | 15.2 | 76.8 | 26.7 | 76 | 76.9 | 25.2 | 46.3 |
| Cc1onc(-c2ccc(Cl)cc2Cl)c1C(=O)/N=c1/nc2nc(Cl)cc(C)n2s1 | 68.1 | 32.8 | 70.2 | 18.6 | 55.6 | 73.6 | 25.8 | 20.1 |
| COc1cc(Cl)nc(NC(=S)NC(=O)c2c(-c3ccc(Cl)cc3Cl)noc2C)n1 | 62.2 | 14.6 | 61 | 21.9 | 56.3 | 53.2 | 18.5 | 30.7 |
| Cc1cc(C)nc(NC(=S)NC(=O)c2c(-c3ccc(Cl)cc3Cl)noc2C)n1 | 61.4 | 26.5 | 68 | 16.9 | 64.7 | 65.4 | 18.5 | 16.1 |
| COc1cc(C)nc2n/c(=N/C(=O)c3c(-c4ccc(Cl)cc4Cl)noc3C)sn12 | 80.6 | 50.3 | 80.6 | 45.7 | 80.5 | 80.4 | 30.9 | 26.4 |
| COc1cc(Cl)nc2n/c(=N/C(=O)c3c(-c4ccc(Cl)cc4Cl)noc3C)sn12 | 72.8 | 16.5 | 70.8 | 19.3 | 40.8 | 65.9 | 10.8 | 28.6 |
| Cc1cc(O)n2s/c(=N\C(=O)c3c(-c4ccc(Cl)cc4Cl)noc3C)nc2n1 | 72.1 | 30.1 | 79.2 | 32.9 | 65.8 | 59.3 | 30.5 | 38.5 |
| CCOC(=O)[C@@H](C)Oc1ccc(Oc2nc3ccc(Cl)cc3o2)cc1 [FENOXAPROP-P-ETHYL] | 85.6 | 35.7 | 42.2 | 16.8 | 71.8 | 48.7 | 58.4 | 16.4 |
| COc1cc(C)nc(NC(=S)NC(=O)c2c(-c3ccc(Cl)cc3Cl)noc2C)n1 | 60.2 | 30.2 | 69.3 | 15.3 | 61.8 | 59.8 | 12.3 | 15.7 |
| COc1cc(SC)nc2n/c(=N/C(=O)c3c(-c4ccc(Cl)cc4Cl)noc3C)sn12 | 79.6 | 19.8 | 75.8 | 23.8 | 55.6 | 68.3 | 21.4 | 27.4 |
| COc1cc(SC)nc(NC(=S)NC(=O)c2c(-c3ccc(Cl)cc3Cl)noc2C)n1 | 55.6 | 34.8 | 69.2 | -8.31 | 40.9 | 60.3 | 19.3 | 18.7 |
